Measured values reported in PubChem BioAssay AID248 (DTP/NCI, 2004).
Inconclusive results and toxic doses are left out.

System: L1210 leukemia ip in BDF1 mice, survival T/C
Experiment: NCI In Vivo Anticancer Drug Screen. Data for tumor model L1210 Leukemia (intraperitoneal) in B6D2F1 (BDF1) mice
Settings: endpoint: mean survival time, higher = longer survival
Method in brief: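 Survival endpoint. Drug-treated group vs vehicle group, expressed as T divided by C. Tumor passaged by transplantation.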

With CN=C(NC)c1ccc(NC(=O)/C=C\c2ccc(C(=O)Nc3ccc(C(=NC)NC)cc3)cc2)cc1 the T/C (dose: 0.23 mg/kg/injection, schedule: Q01DX Z (ip), vehicle: saline) was 90 % of control, the T/C (dose: 0.47 mg/kg/injection, schedule: Q01DX Z (ip), vehicle: saline) was 114 % of control and the T/C (dose: 0.5 mg/kg/injection, schedule: Q01DX006 (iv), vehicle: saline) was 105 % of control. The T/C (dose: 0.5 mg/kg/injection, schedule: Q01DX Z (ip), vehicle: saline) was 104 % of control, the T/C (dose: 0.5 mg/kg/injection, schedule: Q01DX Z (sc), vehicle: saline) was 96 % of control and the T/C (dose: 0.5 mg/kg/injection, schedule: Q02DX004 (im), vehicle: saline) was 98 % of control. For the same molecule, the T/C (dose: 0.94 mg/kg/injection, schedule: Q01DX Z (ip), vehicle: saline) was 120 % of control, the T/C (dose: 1.0 mg/kg/injection, schedule: Q01DX006 (iv), vehicle: saline) was 107 % of control and the T/C (dose: 1.0 mg/kg/injection, schedule: Q01DX Z (ip), vehicle: saline) was 118 % of control. For the same molecule, the T/C (dose: 1.0 mg/kg/injection, schedule: Q01DX Z (sc), vehicle: saline) was 94 % of control, the T/C (dose: 1.0 mg/kg/injection, schedule: Q02DX004 (im), vehicle: saline) was 105 % of control and the T/C (dose: 2.0 mg/kg/injection, schedule: Q01DX006 (iv), vehicle: saline) was 100 % of control. For the same molecule, the T/C (dose: 2.0 mg/kg/injection, schedule: Q01DX Z (sc), vehicle: saline) was 105 % of control, the T/C (dose: 2.0 mg/kg/injection, schedule: Q02DX004 (im), vehicle: saline) was 96 % of control and the T/C (dose: 3.75 mg/kg/injection, schedule: Q01DX Z (ip), vehicle: saline) was 248 % of control. For the same molecule, the T/C (dose: 4.0 mg/kg/injection, schedule: Q01DX006 (iv), vehicle: saline) was 105 % of control, the T/C (dose: 4.0 mg/kg/injection, schedule: Q01DX Z (ip), vehicle: saline) was 209 % of control and the T/C (dose: 4.0 mg/kg/injection, schedule: Q01DX Z (sc), vehicle: saline) was 164 % of control. The T/C (dose: 4.0 mg/kg/injection, schedule: Q02DX004 (im), vehicle: saline) was 107 % of control, the T/C (dose: 8.0 mg/kg/injection, schedule: Q01DX006 (iv), vehicle: saline) was 116 % of control and the T/C (dose: 8.0 mg/kg/injection, schedule: Q01DX Z (ip), vehicle: saline) was 121 % of control. For the same molecule, the T/C (dose: 15.0 mg/kg/injection, schedule: Q01DX Z (ip), vehicle: saline) was 86 % of control, the T/C (dose: 15.0 mg/kg/injection, schedule: Q01DX Z (oral), vehicle: other) was 97 % of control and the T/C (dose: 16.0 mg/kg/injection, schedule: Q01DX004 (im), vehicle: saline) was 123 % of control. For the same molecule, the T/C (dose: 16.0 mg/kg/injection, schedule: Q01DX006 (iv), vehicle: saline) was 107 % of control, the T/C (dose: 16.0 mg/kg/injection, schedule: Q01DX Z (ip), vehicle: saline) was 107 % of control and the T/C (dose: 16.0 mg/kg/injection, schedule: Q01DX Z (sc), vehicle: saline) was 120 % of control. The T/C (dose: 16.0 mg/kg/injection, schedule: Q02DX004 (im), vehicle: saline) was 191 % of control, the T/C (dose: 30.0 mg/kg/injection, schedule: Q01DX Z (oral), vehicle: other) was 95 % of control and the T/C (dose: 32.0 mg/kg/injection, schedule: Q01DX004 (im), vehicle: saline) was 161 % of control. For the same molecule, the T/C (dose: 60.0 mg/kg/injection, schedule: Q01DX Z (oral), vehicle: other) was 104 % of control, the T/C (dose: 62.5 mg/kg/injection, schedule: Q## X009 (oral), vehicle: saline) was 93 % of control and the T/C (dose: 125.0 mg/kg/injection, schedule: Q## X010 (oral), vehicle: saline) was 112 % of control. For the same molecule, the T/C (dose: 128.0 mg/kg/injection, schedule: Q01DX004 (im), vehicle: saline) was 116 % of control, the T/C (dose: 250.0 mg/kg/injection, schedule: Q## X010 (oral), vehicle: saline) was 111 % of control and the T/C (dose: 500.0 mg/kg/injection, schedule: Q## X009 (oral), vehicle: saline) was 102 % of control.

CCNC(=O)c1ccc2c(c1NCC)C(=O)c1ccccc1C2=O was tested, and the T/C (dose: 75.0 mg/kg/injection, schedule: Q01DX001 (ip), vehicle: acetone) was 98 % of control, the T/C (dose: 150.0 mg/kg/injection, schedule: Q01DX001 (ip), vehicle: acetone) was 104 % of control and the T/C (dose: 300.0 mg/kg/injection, schedule: Q01DX001 (ip), vehicle: acetone) was 104 % of control.

With O=[N+]([O-])c1ccc(-c2cccc3ccccc23)c([N+](=O)[O-])c1 the T/C (dose: 100.0 mg/kg/injection, schedule: Q01DX001 (ip), vehicle: carboxymethylcellulose (CMC)) was 96 % of control and the T/C (dose: 400.0 mg/kg/injection, schedule: Q01DX001 (ip), vehicle: carboxymethylcellulose (CMC)) was 91 % of control.

For Clc1cc2nsnc2c2ccccc12, the T/C (dose: 200.0 mg/kg/injection, schedule: Q04DX002 (ip), vehicle: gum acacia) was 95 % of control.
